This note sets out measurements from patent US20180207228A1, “PEPTIDE COMBINATIONS AND USES THEREOF FOR TREATING GRASS ALLERGY” (ALK-Abelló A/S, priority 2015, published 2018).

Where no end group is shown, it is not given here.

The test system of data set [1] is grass pollen allergic donor derived TCL-03 lines. Put plainly: Extended cross-reactivity study, proliferation on TCL03 DK1+DK2 (Study XR2), scoring. The format is cell-based, human. The settings on record: study XR2; for Cross-reactivity score, Cyn d: homologue from Cyn d; for Cross-reactivity sum: scores of all species added; for Cross-reactivity/species: sum divided by the number of species measured.

Data set [2] is described as follows: Extended solubility and short term stability study (visual, U-HPLC recovery, DLS, 90LS, UV-VIS, sum of scores). The settings on record: for solubility: pH 4.5. How it is done:
For that purpose, the peptides were provided as acetate salts (produced by Innovagen® at a >10 mg scale of manufacturing). To take into account batch-to-batch variations, some peptides were tested from other batches of the manufacturer Innovagen®, as well as from another manufacturer (Almac) and from in-house production. Solubility experiments were performed on peptide in solution in concentrations ranging from 0.5 mg/mL to 3 mg/mL (dry matter)—with the following solvents: • Water • Acetate buffer, pH 4.5 (25 mM sodium acetate containing 250 mM D-Mannitol) • Phosphate buffer, pH 7.0 (25 mM sodium phosphate containing 250 mM D-Mannitol) • Glycine buffer, pH 8.5 (25 mM glycine containing 250 mM D-Mannitol)
The solubility of the peptides was initially investigated by visual inspection and U-HPLC recovery. Visual inspection included assessment of turbidity and presence of particles/aggregates of each peptide solution before and after centrifugation as well as visual inspection of pelleted material. The visual inspection were reported as “clear solution”, “very small precipitation only visible with a magnifier”, “precipitation visible/turbid solution” or “more precipitation/turbid solution”. Filtration of peptide solutions were conducted using syringe based filters containing a polyethersulfone (PES) membrane chemistry and a pore size of 0.2 μm. The amount of the peptide in the supernatant of a filtered sample was determined using U-HPLC with reverse phase chromatography and recovery were determined as described in Example 5.
Peptide solutions were investigated at a time point of 1 hour after production, but were also repeated at later time point (e.g. 24. 48 or 96 hours) to investigate the stability of the peptides.
Peptide solutions were investigated to determine the presence of turbidity/particles/aggregates by use of optical density (OD) and change in UV-VIS absorbance at a wavelength of 320 nm, of the filtrate. […] In addition or as an alternative, the amount of the peptide in the supernatant of a filtered sample was determined using U-HPLC as described above, with the exception that the recovery was determined by dividing the peak area of the filtered sample in relation to the peak area in the original solution prior to filtration. See also Example 5 for further details regarding UV-VIS, and recovery measured by U-HPLC.
The peptides were scored in relation to the outcome of the above mentioned tests: For each peptide in a given buffer and at a given concentration, a sum of test scores was calculated and the sum used to rank the peptides according to solubility: • 1. […] DLS peak 1 number 3 nm gave a score of 1, 3-10 nm gave a score of 2, 10-100 nm gave a score of 3, >100 nm gave a score of 4. • 5. 90LS at 400 nm: Intensity <450 gave a score of 1, <800 gave a score of 2, >800 gave a score of 3. • 6. UV-VIS change in absorbance at 320 nm within 24 hours: 0.01 gave a score of 1, ≤0.05 gave a score of 2, 0.0.2 gave a score of 3 and >0.2 gave a score of 4.

Data set [3] is described as follows: Peptide solubility by visual inspection. The data set is classed as physicochemical. The settings on record: for Visual inspection: first solubility screening, TFA salts, 1-7 mg/mL solutions in DMSO. On the procedure: Water (pH 3-5) • 2. 250 mM D-Mannitol and 25 mM sodium acetate, pH 4.5 • 3. 250 mM D-Mannitol and 25 mM sodium phosphate, pH 7.0 • 4. […] Water (pH 3-5) • 2. 250 mM D-Mannitol and 25 mM sodium acetate, pH 4.5 • 3. 250 mM D-Mannitol and 25 mM sodium phosphate, pH 7.0 • 4. […] A subset of the peptides was selected as candidate peptides for a final peptide mixture. […] During the solubility studies the peptide-containing solutions were inspected visually before and after filtration for turbidity, and presence of particles/aggregates. In addition, presence of turbidity/particles/aggregates was also detected by optical density (OD) or absorbance of filtered material, but might also be detected by size-exclusion chromatography. Furthermore, Sub-visual particles may also be detected by dynamic light scattering (DLS) analysis on filtered and non-filtered peptide containing solutions. Samples were furthermore subjected to centrifugation to allow for the possible visual inspection of pelleted material.

Data set [4] concerns the target 25 HLA Class II alleles (purified class II MHC molecules). Description: competitive radiolabelled-peptide binding to purified HLA class II (25 alleles, binder if IC50 <300 nM); worldwide phenotypic coverage of the alleles found to bind.

Turning to GDEQKLRSAGELELQFRRVK-OH [compound 206], in data set [1] (score 0 to 7), the “Cross-reactivity score, Cyn d” value turned out to be 0. Besides, the “Cross-reactivity score, Dac g” value in data set [1] (homologue from Dac g, score 0 to 7) was 2. In addition, the “Cross-reactivity score, Fes p” value in data set [1] (homologue from Fes p, score 0 to 7) came out at 2. In addition, the “Cross-reactivity score, Lol p” value in data set [1] (homologue from Lol p, score 0 to 7) was 2. In addition, the “Cross-reactivity score, Pas n” value in data set [1] (homologue from Pas n, score 0 to 7) amounted to 0. For the same molecule, the “Cross-reactivity score, Pha a” value in data set [1] (homologue from Pha a, score 0 to 7) turned out to be 1. In data set [1] (homologue from Poa p, score 0 to 7), the “Cross-reactivity score, Poa p” value amounted to 0.5. The “Cross-reactivity score, Sor h” value in data set [1] (homologue from Sor h, score 0 to 7) came out at 0.5. Besides, in data set [1], the Cross-reactivity sum is listed as 8 and the Cross-reactivity/species is reported as 1. Moreover, in data set [2], the “solubility in all the test samples (concentrations and pH tested), all solubility tests” value is “good solubility”; the “solubility in aqueous solutions and short-term stability” value is reported as “sufficiently soluble”; the solubility result is recorded as “acceptable solubility”. Besides, the “solubility, 1st round of solubility screening” value (shortened to “solubility, 1st round”) in data set [3] was “soluble”.

Regarding TPDKLTGPFTVRYTTEGGTK-OH [compound 024], the Visual inspection result in data set [3] is reported as “++”.

STGGAYESYKFIPALEAAVK-NH2 [compound 261]: in data set [2], the “solubility by ranking scheme based on a sum of scores” value (“solubility by ranking scheme based” for short) is on record as “good solubility”; the “solubility in aqueous solutions and short-term stability” value is “sufficiently soluble”.

For the molecule WLDAKSTWYGKPTGAGPKDN-OH [peptide 201], in data set [2], the “solubility in aqueous solutions and short-term stability” value is listed as “sufficiently soluble”; the solubility entry is “acceptable solubility”. The “solubility, 1st round” value in data set [3] is on record as “soluble”.

For AGYTPAAPAGAEPAGKATTE-OH [peptide 228], in data set [2], the “solubility in aqueous solutions and short-term stability” value is reported as “sufficiently soluble”; the solubility entry was “acceptable solubility”.

KEDFLGSLVKEIPPRLLYAK-OH [peptide 222]: in data set [1] (score 0 to 7), the “Cross-reactivity score, Cyn d” value is 1. In data set [1], this molecule returned a Cross-reactivity sum of 1 and a Cross-reactivity/species of 1. Also, in data set [2], the “solubility in aqueous solutions and short-term stability” value is “sufficiently soluble”; the solubility entry was “acceptable solubility”. Also, in data set [3], the “solubility, 1st round” value is listed as “soluble”. Besides, the “Visual inspection after 60 min pH 4.5” value in data set [3] (3 mg/mL, acetate salt, non-filtered, 250 mM D-Mannitol and 25 mM sodium acetate, pH 4.5) is recorded as “+ particles,”. For the same molecule, the “Visual inspection after centrifugation pH 4.5” value in data set [3] (3 mg/mL, acetate salt, non-filtered, 250 mM D-Mannitol and 25 mM sodium acetate, pH 4.5, after centrifugation) is “++”. Moreover, the “Visual inspection after 60 min pH 7” value in data set [3] (3 mg/mL, acetate salt, non-filtered, 250 mM D-Mannitol and 25 mM sodium phosphate, pH 7.0) was “tread +”. Further, the “Visual inspection after centrifugation pH 7” value in data set [3] (3 mg/mL, acetate salt, non-filtered, 250 mM D-Mannitol and 25 mM sodium phosphate, pH 7.0, after centrifugation) is given as “++”.

Regarding SMGDDHFWAVRGGGGESFGI-OH [peptide 226], in data set [2], the “solubility in aqueous solutions and short-term stability” value is “sufficiently soluble”; the solubility result is given as “acceptable solubility”. Besides, the “solubility, 1st round” value in data set [3] was “soluble”.

Take VVAVDIKEKGKDKWIELKES-OH [compound 021]: the Visual inspection result in data set [3] was “++”.

For the molecule “Ac-STGGAYESYKFIPALEAAVK-OH [compound 260]”, in data set [2], the “solubility by ranking scheme based” value is given as “good solubility”; the “solubility in aqueous solutions and short-term stability” value is recorded as “sufficiently soluble”.

As for GGASGYKDVDKPPFSGMTGS-OH [compound 006], the Visual inspection result in data set [3] was “+”.

Consider VRYTTEGGTKTEAEDVIPEG-OH [peptide 212], for which, in data set [2], the “solubility in aqueous solutions and short-term stability” value is listed as “sufficiently soluble”; the solubility result was “acceptable solubility”. In addition, the “solubility, 1st round” value in data set [3] was “soluble”.

For the molecule “Ac-STGGAYESYKFIPALEAAVK-NH2 [compound 262]”, in data set [2], the “solubility by ranking scheme based” value was “good solubility”; the “solubility in aqueous solutions and short-term stability” value is listed as “sufficiently soluble”.

As to AEVELRQHGSEEWEPLTKKG-OH [compound 063], the Visual inspection entry in data set [3] is reported as “+”.

YHFDLSGHAFGAMAKKGDEQ [peptide 205 (Phl p 1, 103)] showed a Measured binding coverage 25 alleles in data set [4] of 88%.

Turning to KYDAYVATLTEALR [peptide 137, Lol p 5b (Bio02A)], the Measured binding coverage 25 alleles in data set [4] was determined as 98%.

In data set [4], KFIPTLVAAVKQAYAAKQ [peptide 138, Lol p 5b (Bio03A)] displayed a Measured binding coverage 25 alleles of 99%.

Regarding SGKAFGAMAKKGQED [peptide 134, Cyn d 1 (Ber01)], the Measured binding coverage 25 alleles in data set [4] was found to be 47%.

For KKPEVKYAVFEAALTKAIT (not fully specified) [peptide 143, Lol p 5a (Rye09B2)], in data set [4], the Measured binding coverage 25 alleles stood at 99%.

LVKYVNGDGDVVAVDIKEKG [peptide 209 (Phl p 1, 163)]: the Measured binding coverage 25 alleles in data set [4] stood at 85%.

In data set [4], GDEQKLRSAGELELQFRRVK [peptide 206 (Phl p 1, 119)] gave a Measured binding coverage 25 alleles of 70%.

Consider PEVKYAVFEAALTKAIT [peptide 140, Lol p 5a (Rye09B)], for which, in data set [4], the Measured binding coverage 25 alleles was determined as 99%.

KPEVKYAVFEAALTKAIT (not fully specified) [peptide 142, Lol p 5a (Rye09B1)] gave a Measured binding coverage 25 alleles in data set [4] of 100%.

As for KSSWGAIWRIDPKKPLK [peptide 136, Cyn d 1 (Ber02C)], the Measured binding coverage 25 alleles in data set [4] is 76%.

AGELELQFRRVKSKYPEGTK [peptide 207 (Phl p 1, 127)]: the Measured binding coverage 25 alleles in data set [4] turned out to be 71%.

In data set [4], FIPMKSSWGA [peptide 135, Cyn d 1 (Ber02)] came in with a Measured binding coverage 25 alleles of 19%.

For LKKAVTAMSEAEK [peptide 139, Lol p 5b (Bio04A)], the Measured binding coverage 25 alleles in data set [4] turned out to be 62%.
